Structures can show the parent of a compound that is named as a salt. Where two headings read alike, the source gives them in different places. Each block holds one molecule with its values, some of them ahead of it.
Columns and labels:
[1] = biological target: human adenosine A2A receptor (Homo sapiens, UniProt P29274); assay: Binding affinities at hA2A receptors, displacement of [3H]-CGS 21680
catalepsy = settings: cited from earlier work
Parkinsonian patients = settings: cited from earlier work
[2] = human adenosine A2A receptor, radioligand [3H]-CGS 21680

human adenosine A2A receptor, sequence (P29274 whole entry): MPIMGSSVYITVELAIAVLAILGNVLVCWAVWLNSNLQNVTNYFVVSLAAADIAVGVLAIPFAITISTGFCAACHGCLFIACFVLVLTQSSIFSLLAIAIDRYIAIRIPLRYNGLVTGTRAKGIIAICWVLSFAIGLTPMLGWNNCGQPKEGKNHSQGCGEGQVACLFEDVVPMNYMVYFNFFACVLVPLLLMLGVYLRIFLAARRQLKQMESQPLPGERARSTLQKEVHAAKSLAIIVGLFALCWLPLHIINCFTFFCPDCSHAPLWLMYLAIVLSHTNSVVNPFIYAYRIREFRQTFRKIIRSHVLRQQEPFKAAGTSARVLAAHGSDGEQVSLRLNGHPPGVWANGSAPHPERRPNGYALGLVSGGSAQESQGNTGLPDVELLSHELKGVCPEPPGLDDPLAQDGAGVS

melting point: 191.4 to 191.5 °C
SMILES: CC(C)n1ncc2c(-c3ccco3)nc(N)nc21 (as salt: HCl) [Example 21, 4-(2-furyl)-1-(1-methylethyl)-1H-pyrazolo[3,4-d]pyrimidine-6-amine]

melting point: 218 °C
SMILES: CCCCCn1ncc2c(-c3ccco3)nc(N)nc21 (as salt: HCl) [Example 23, 4-(2-furyl)-1-n-pentyl-1H-pyrazole[3,4-d]pyrimidine-6-amine]

melting point: 249.8 to 249.9 °C
SMILES: Nc1nc(-c2ccco2)c2cnn(CC(=O)Nc3ccccn3)c2n1 (as salt: HCl) [Example 29, 6-amino-4-(2-furyl)-N-(2-pyridyl)-1H-pyrazolo[3,4-d]pyrimidin-1-ylacetamide]

melting point: 85.1 to 85.6 °C
SMILES: Clc1nc(-c2ccco2)c2cnn(CCc3ccccc3)c2n1 [Example 1, 6-chloro-4-(2-furyl)-1-(2-phenylethyl)-1H-pyrazolo[3,4-d]pyrimidine]

melting point: 261.9 to 262.7 °C
SMILES: CC(C)(C)OC(=O)n1ncc2c(-c3ccco3)nc(N)nc21 [Example 4, tert-butyl 6-amino-4-(2-furyl)-1H-pyrazolo[3,4-d]pyrimidine-1-carboxylate]

Ki [1, 2]: 9 nM
SMILES: Nc1nc(-c2ccco2)c2cnn(Cc3ccccc3Cl)c2n1 [Example 11, 1-(2-chlorobenzyl)-4-(2-furyl)-1H-pyrazolo[3,4-d]pyrimidine-6-amine]

Ki [1, 2]: 2 nM
SMILES: COc1cccc(Cn2ncc3c(-c4ccco4)nc(N)nc32)c1 [Example 12, 4-(2-furyl)-1-(3-methoxybenzyl)-1H-pyrazolo[2,4-d]pyrimidine-6-amine]

Ki [1]: 2 nM
SMILES: Nc1nc(-c2ccco2)c2cnn(Cc3ccccc3F)c2n1 [Example 14, 1-(2-fluorobenzyl)-4-(2-furyl)-1H-pyrazolo[3,4-d]pyrimidine-6-amine]

Ki [1]: 2 nM
SMILES: Cc1cccc(Cn2ncc3c(-c4ccco4)nc(N)nc32)c1 [Example 15, 4-(2-furyl)-1-(3-methylbenzyl)-1H-pyrazolo[3,4-d]pyrimidine-6-amine]

Ki [1, 2]: 6 nM
SMILES: Nc1nc(-c2ccco2)c2cnn(Cc3ccc(C(F)(F)F)cc3)c2n1 [Example 22, 4-(2-furyl)-1-(4-trifluoromethylbenzyl)-1H-pyrazolo[3,4-d]pyrimidine-6-amine]

Ki [1, 2]: 2 nM
SMILES: Nc1nc(-c2ccco2)c2cnn(Cc3c(F)cccc3F)c2n1 [Example 24, 1-(2,6-difluorobenzyl)-4-(2-furyl)-1H-pyrazolo[3,4-d]pyrimidine-6-amine]

melting point: 177 to 177.1 °C
SMILES: CCOC(=O)Cn1ncc2c(-c3ccco3)nc(N)nc21 [Example 26, ethyl 6-amino-4-(2-furyl)-1H-pyrazolo[3,4-d]pyrimidine-1-ylacetate]

Ki [1]: 5 nM
SMILES: Nc1nc(-c2cccs2)c2cnn(Cc3ccccc3F)c2n1 [Example 28, 1-(2-fluorobenzyl)-4-(2-thienyl)-1H-pyrazolo[3,4-d]pyrimidine-6-amine]

Ki [1, 2]: 4 nM
SMILES: Nc1nc(-c2ccco2)c2cnn(Cc3cccc([N+](=O)[O-])c3)c2n1 [Example 30, 4-(2-furyl)-1-(3-nitrobenzyl)-1H-pyrazolo[3,4-d]pyrimidine-6-amine]

Ki [1]: 2 nM
SMILES: Nc1nc(-c2ccco2)c2cnn(CCCc3ccccc3)c2n1 [Example 31, 4-(2-furyl)-1-(3-phenylpropyl)-1H-pyrazolo[3,4-d]pyrimidine-6-amine]

Ki [1, 2]: 4 nM
SMILES: Nc1cccc(Cn2ncc3c(-c4ccco4)nc(N)nc32)c1 [Example 32, 1-(3-aminobenzyl)-4-(2-furyl)-1H-pyrazolo[3,4-d]pyrimidine-6-amine]

Ki [1, 2]: 12 nM
SMILES: Nc1nc(-c2ccccn2)c2cnn(Cc3ccccc3F)c2n1 [Example 33, 1-(2-fluorobenzyl)-4-(2-pyridyl)-1H-pyrazolo[3,4-d]pyrimidine-6-amine]

melting point: 276.8 to 277.2 °C
SMILES: Nc1nc(-c2ccco2)c2cnn(CC(=O)NCc3ccccc3)c2n1 [Example 34, 6-amino-N-benzyl-4-(2-furyl)-1H-pyrazolo[3,4-d]pyrimidin-1-ylacetamide]

melting point: 276.8 to 277.2 °C
SMILES: Nc1nc(-c2ccco2)c2cnn(CC(=O)Nc3ccccc3)c2n1 [Example 35, 6-amino-4-(2-furyl)-N-phenyl-1H-pyrazolo[3,4-d]pyrimidin-1-ylacetamide]

melting point: 247.9 to 249.4 °C
SMILES: Nc1nc(-c2ccco2)c2cnn(CC(=O)NCc3ccco3)c2n1 [Example 37, 6-amino-4-(2-furyl)-N-(2-furylmetyl)-1H-pyrazolo[3,4-d]pyrimidin-1-ylacetamide]

melting point: 267.4 to 271.5 °C
SMILES: COc1cccc(NC(=O)Cn2ncc3c(-c4ccco4)nc(N)nc32)c1 [Example 43, 6-amino-4-(2-furyl)-N-(3-methoxyphenyl)-1H-pyrazolo[3,4-d]pyrimidin-1-ylacetamide]

melting point: 231.1 to 231.2 °C
SMILES: Nc1nc(-c2ccco2)c2cnn(CC(=O)NCCc3ccccc3)c2n1 [Example 44, 6-amino-4-(2-furyl)-N-(2-phenylethyl)-1H-pyrazolo[3,4-d]pyrimidin-1-ylacetamide]

melting point: 276.2 to 278.5 °C
SMILES: Nc1nc(-c2ccco2)c2cnn(CC(=O)Nc3ccccc3F)c2n1 [Example 45, 6-amino-N-(2-fluorophenyl)-4-(2-furyl)-1H-pyrazolo[3,4-d]pyrimidin-1-ylacetamide]

melting point: 265.8 °C
SMILES: Cc1ccc(Cn2ncc3c(-c4ccn[nH]4)nc(N)nc32)cc1 [Example 50, 1-(4-methylbenzyl)-4-(1H-pyrazol-3-yl)-1H-pyrazolo[3,4-d]pyrimidine-6-amine]

Ki [1]: 71 nM
melting point: 287.9 °C
SMILES: Nc1nc(-c2nnc[nH]2)c2cnn(Cc3ccccc3F)c2n1 [Example 51, 1-(2-fluorobenzyl)-4-(1,2,4-triazol-3-yl)-1H-pyrazolo[3,4-d]pyrimidine-6-amine]

Ki [1, 2]: 16 nM
SMILES: Nc1nc(-c2ccn[nH]2)c2cnn(Cc3ccccc3F)c2n1 [Example 55, 1-(2-fluorobenzyl)-4-(3-pyrazolyl)-1H-pyrazolo[3,4-d]pyrimidine-6-amine]

Ki [1, 2]: 8 nM
SMILES: Nc1nc(-c2ccco2)c2cnn(Cc3ccccc3N)c2n1 [Example 56, 1-(2-aminobenzyl)-4-(2-furyl)-1H-pyrazolo[3,4-d]pyrimidine-6-amine]

melting point: 278.5 to 279 °C
SMILES: Nc1nc(-c2ccn[nH]2)c2cnn(Cc3cccc([N+](=O)[O-])c3)c2n1 [Example 59, 1-(3-nitrobenzyl)-4-(3-pyrazolyl)-1H-pyrazolo[3,4-d]pyrimidine-6-amine]

melting point: 193.3 to 193.4 °C
SMILES: Nc1cccc(Cn2ncc3c(-c4nnc[nH]4)nc(N)nc32)c1 [Example 60, 1-(3-aminobenzyl)-4-(1,2,4-triazol-3-yl)-1H-pyrazolo[3,4-d]pyrimidine-6-amine]

melting point: 193.3 to 193.4 °C
SMILES: Nc1nc(-c2nccs2)c2cnn(Cc3cccc([N+](=O)[O-])c3)c2n1 [Example 61, 1-(3-nitrobenzyl)-4-(2-thiazolyl)-1H-pyrazolo[3,4-d]pyrimidine-6-amine]

melting point: 177.8 to 178.3 °C
SMILES: Nc1cccc(Cn2ncc3c(-c4nccs4)nc(N)nc32)c1 [Example 62, 1-(3-aminobenzyl)-4-(2-thiazolyl)-1H-pyrazolo[3,4-d]pyrimidine-6-amine]

melting point: 171 to 172 °C
SMILES: COc1cccc(Cn2ncc3c(-c4ccn[nH]4)nc(N)nc32)c1 [Example 64, 1-(3-methoxybenzyl)-4-(1H-pyrazol-3-yl)-1H-pyrazolo[3,4-d]pyrimidine-6-amine]

SMILES: CCCn1c(=O)c2c(nc(/C=C/c3ccc(OC)c(OC)c3)n2C)n(CCC)c1=O [KF 17837, (E)-8-(3,4-dimethoxystyryl)-1,3-dipropyl-7-methylxanthine]
anticataleptic effects of a subthreshold dose of L-DOPA plus benserazide (catalepsy; in vivo): potentiated
catalepsy induced by haloperidol and reserpine (catalepsy; in vivo): reduced
cataleptic responses induced by intracerebroventricular CGS 21680 (catalepsy; oral administration): significantly ameliorated

SMILES: Cn1c(=O)c2[nH]cnc2n(C)c1=O [theophylline, 1,3-dimethylxanthine]
mean objective disability scores (Parkinsonian patients; 15 Parkinsonian patients, up to 12 weeks, 150 mg/day oral): significant improvements
patients reporting moderate or marked subjective improvement (Parkinsonian patients; of 15 Parkinsonian patients, up to 12 weeks, 150 mg/day oral): 11
serum theophylline levels (Parkinsonian patients; slow release oral theophylline preparation 150 mg/day, after one week): 4.44 mg/L

Source: US7629349B2, “Pyrazolo [3,4-d] pyrimidine derivatives and their use as purinergic receptor antagonists” (Vernalis Research Limited, priority 2001, dated 2009)
